Assay results: patent US6613762B2, “Gambogic acid, analogs and derivatives as activators of caspases and inducers of apoptosis” (Cytovia, Inc., priority 1999, dated 2003)

How the values were obtained:
ZR-75-1 cells = experiment: Inhibition of cell proliferation (GI50) and cell death (LC50), ZR-75-1; format: cell-based; conditions: ZR-75-1, 48 h; read-out: GI50 (dose for 50% inhibition of cell proliferation)
Procedure: (§1) T47D, ZR-75-1, PC-3, human prostate cancer cell line DU-145, human non-small cell lung cancer cell line A-549, human small cell lung cancer cell line SHP-77, HL-60 and MRC-5 cells were grown and harvested as in Example 90. […] The samples were mixed by agitation and incubated at 37° C. for 2-4 h in a 5% CO2-95% humidity incubator. […] This determines the possible background absorbance of the test compounds. No absorbance for gambogic acid or its analogs or derivatives was found at 490 nm. After the 2-4 h incubation, the samples were read for absorbance as above (ATest).
(§2) Baseline for GI50 (dose for 50% inhibition of cell proliferation) and LC50 (dose for 50% cell death) of initial cell numbers was determined by adding an aliquot of 90 μl of cells or 90 μl of media, respectively, to wells of a 96-well microtiter plate containing 10 μl of a 10% DMSO in RPMI-1640 media solution. […] The samples were mixed by agitation and incubated at 37° C. for 2-4 h in a 5% CO2-95% humidity incubator. Absorbance was read as above, (AT=0) defining absorbance for initial cell number used as baseline in GI50 determinations and (Amin) defining absorbance for media alone used as baseline in LC50 determinations.
(§3) GI50 (dose for 50% inhibition of cell proliferation)
(§4) LC50 (dose for 50% cell death)
(§5) 50=100×[(ATest−Amin)/(AT=0−Amin)]

[1] = system: caspase activity, A-549 cells; experiment: Caspase induction and its inhibition by caspase inhibitor (Example 97), A-549; format: cell-based, human; design: key to Inhibition of caspase activity by Inhibitor: The caspase activity detected was inhibited by the caspase inhibitor (+)
Procedure: (§6) T47D, ZR-75, PC3, SHP-77 and A-549 cells were maintained and harvested as described in Example 90. Cells were added to 96-well plates as described in Example 90. The cells were treated with 10 μM gambogic acid, in the presence and in the absence of 10 μM caspase inhibitor cbz-Val-Asp-fmk (Cytovia, Inc.; WO99/18781). The plate was incubated up to 24 h at 37° C in a 5% CO2-95% humidity incubator. Caspase activity was determined by addition of a fluorogenic substrate as described in Example 90.
(§7) Gambogic acid induced caspase activity in a ratio of greater than 2.5 (+) above untreated cell levels in all the tested cancer cell lines (Table IV). The caspase activity detected was inhibited by the caspase inhibitor (+), confirming that the fluorescent signal was due to caspase activity.

[2] = system: caspase activity, T47D cells and MRC-5 cells; experiment: Dose response of caspase activation in T47D versus normal fibroblasts MRC-5; format: cell-based, human; conditions: 2 h incubation, two-fold serial dilutions (FIG. 4)
Procedure: T47D cells and MRC-5 cells were maintained and harvested as described in Example 90. An aliquot of 45 μl of cells was added to each well of a 96-well microtiter plate. To determine the dose response of gambogic acid for inducing caspase activity, 5 μl of 20 μM gambogic acid in RPMI media was added to wells in triplicates. Two-fold serial dilutions were made for the lower concentrations. After incubation for 2 h, the samples were removed from the 5% CO2-95% humidity incubator and caspase activity was determined by addition of a fluorogenic substrate as described in Example 90.

KB cell line = conditions: reported by Lin et al., Magn. Reson. Chem. 31:340-347 (1993); cited from earlier work
[3] = system: caspase activity, ZR-75 cells; experiment: Caspase induction and its inhibition by caspase inhibitor (Example 97), ZR-75; format: cell-based, human; design: key to Inhibition of caspase activity by Inhibitor: The caspase activity detected was inhibited by the caspase inhibitor (+)
Procedure: as §6, §7

HeLa cells = conditions: reported by Asano et al., Phytochemistry 41:815-820 (1996); cited from earlier work
[4] = system: poly(ADP)ribose polymerase (PARP) cleavage, T47D cells; experiment: PARP cleavage western blot, T47D cells; format: cell-based, human
Procedure: (§8) Cleavage of the enzyme poly(ADP)ribose polymerase (PARP) by caspase-3 and related proteases is considered to be one of the molecular hallmarks of caspase-mediated apoptosis. Therefore, the ability of gambogic acid to induce PARP cleavage in four different human tumor cell lines (Jurkat cells, HL-60 cells, T47D cells and PC3 cells) was determined.
(§9) Cells were cultured in complete growth medium containing 10% FBS and treated with gambogic acid at concentrations of 2.5 μM or 5 μM for 2 to 4 h. Control cultures were treated with a drug vehicle (DMSO), or the well-characterized apoptosis inducer, staurosporine. At the end of the apoptosis induction period, the cells were harvested, washed once with PBS, quick-frozen on dry ice, and stored at −80° C. The cells were then lysed in a standard immunoblotting lysis buffer and samples of the lysates were electrophoresed on 4% to 20% gradient polyacrylamide gels. The proteins in the gels were then transferred to PVDF membranes and probed with a commercially-available rabbit polyclonal antibody to PARP.

[5] = system: human small cell lung cancer cell line SHP-77; experiment: Inhibition of cell proliferation (GI50) and cell death (LC50), SHP-77; format: cell-based; conditions: SHP-77, 48 h
Procedure: as §1, §2, §3, §4, §5

[6] = system: poly(ADP)ribose polymerase (PARP) cleavage, Jurkat cells; experiment: PARP cleavage western blot, Jurkat cells; format: cell-based, human; conditions: 2.5 μM, 2 h (FIG. 5A)
Procedure: as §8, §9

HEL cells = conditions: reported by Asano et al., Phytochemistry 41:815-820 (1996); cited from earlier work
MRC-5 cells = experiment: Inhibition of cell proliferation (GI50) and cell death (LC50), MRC-5; format: cell-based; conditions: MRC-5, 48 h
Procedure: as §1, §2, §3, §4, §5

[7] = system: caspase activity, SHP-77 cells; experiment: Caspase induction and its inhibition by caspase inhibitor (Example 97), SHP-77; format: cell-based, human; design: key to Inhibition of caspase activity by Inhibitor: The caspase activity detected was inhibited by the caspase inhibitor (+)
Procedure: as §6, §7

PC-3 cells = experiment: Inhibition of cell proliferation (GI50) and cell death (LC50), PC-3; format: cell-based; conditions: PC-3, 48 h; read-out: GI50 (dose for 50% inhibition of cell proliferation)
Procedure: as §1, §2, §3, §4, §5

[8] = read-out: GI50 (dose for 50% inhibition of cell proliferation)
[9] = read-out: LC50 (dose for 50% cell death)

CC(C)=CCC[C@]1(C)C=Cc2c(O)c3c(c(CC=C(C)C)c2O1)O[C@]12C(=C[C@@H]4C[C@H]1C(C)(C)O[C@@]2(C/C=C(/C)C(=O)O)C4=O)C3=O [Example 1, Gambogic Acid]
GI50 (ZR-75-1 cells): 400 nM | Inhibition of caspase activity by Inhibitor ([1]; A-549, 10 μM gambogic acid with 10 μM caspase inhibitor cbz-Val-Asp-fmk): + | Caspase activity ([1]; A-549, 10 μM gambogic acid, up to 24 h): + (Gambogic acid induced caspase activity in a ratio of greater than 2.5 (+) above untreated cell levels) | Sensitivity of T47D to induction of caspase activity relative to MRC-5 (dose response) [2]: more sensitive to induction of caspase activity than a normal fibroblast cell line MRC-5 | Cytotoxicity against KB cell line (KB cell line): cytotoxic | Inhibition of caspase activity by Inhibitor ([3]; ZR-75, 10 μM gambogic acid with 10 μM caspase inhibitor cbz-Val-Asp-fmk): + | Caspase activity ([3]; ZR-75, 10 μM gambogic acid, up to 24 h): + (Gambogic acid induced caspase activity in a ratio of greater than 2.5 (+) above untreated cell levels) | Cytotoxicity to HeLa cells (HeLa cells): cytotoxic | PARP cleavage ([4]; 2.5 μM and 5 μM, 4 h (FIG. 5C)): almost complete PARP cleavage | PARP cleavage ([4]; 2.5 μM, 2 h (FIG. 5C)): moderate induction of PARP cleavage | PARP cleavage ([4]; 5 μM, 2 h (FIG. 5C)): almost complete PARP cleavage | GI50 [5, 8]: 500 nM | CC50 [5, 9]: 500 nM | PARP cleavage [6]: almost complete PARP cleavage | Cytotoxicity to HEL cells (HEL cells): cytotoxic | GI50 (MRC-5 cells; [8]): 400 nM | CC50 (MRC-5 cells; [9]): 500 nM | Inhibition of caspase activity by Inhibitor ([7]; SHP-77, 10 μM gambogic acid with 10 μM caspase inhibitor cbz-Val-Asp-fmk): + | Caspase activity ([7]; SHP-77, 10 μM gambogic acid, up to 24 h): + (Gambogic acid induced caspase activity in a ratio of greater than 2.5 (+) above untreated cell levels) | GI50 (PC-3 cells): 500 nM
